Article PMC8187357 (Communications Biology, 2021)
Where “and” joins values, the source holds several entries; their conditions need not be identical. Equal values may be shown once.

Tests used:
PD-L2 = molecular target: T1, PD-L2 (Mus musculus, UniProt Q9WUL5); experiment: Rescue of PD-L2 mediated inhibition of proliferation, mouse splenocytes; type: cell-based; conditions: mean ± S.D.; n=2; read-out: Mouse Splenocyte Proliferation Rescue EC50 PD-L2
T1 construct: purchased R&D Systems 1022-PL-100
Description: For all in vitro assays, test agent stock was prepared in water and diluted further in the assay media to achieve test concentrations. Each experimental condition was carried out in triplicates. Percent rescue for a given test compound concentration was calculated by normalizing individual percent test agent proliferation or IFN-γ release values to percent anti-CD3 and anti-CD28 antibodies stimulated proliferation or IFN-γ release.

PD-L1 = molecular target: T2, PD-L1 (Mus musculus, UniProt Q9EP73); experiment: Rescue of IFN-γ release inhibited by PD-L1, mouse splenocytes; type: cell-based; conditions: mean ± S.D.; n=2; read-out: Mouse Splenocyte IFN-γ Rescue EC50 PD-L1
T2 construct: purchased R&D Systems 1019-B7-100
Description: The ability of peptides, peptidomimetics, and small molecules were analyzed for their ability to rescue T-cell proliferation or IFN-γ release from the inhibitory activity of PD-L1 or PD-L2 in a splenocyte/PBMC-based functional assay as per the protocols reported in publication[20]. […] For all in vitro assays, test agent stock was prepared in water and diluted further in the assay media to achieve test concentrations. Each experimental condition was carried out in triplicates. Percent rescue for a given test compound concentration was calculated by normalizing individual percent test agent proliferation or IFN-γ release values to percent anti-CD3 and anti-CD28 antibodies stimulated proliferation or IFN-γ release. EC50 values were derived by plotting transformed data into non-linear fit in sigmoidal dose–response curve using GraphPad Prism software (Version 7).

PD-1:PD-L1 complex = molecular target: T3, PD-1:PD-L1 complex (Homo sapiens, UniProt Q9NZQ7); experiment: TR-FRET PD-1:PD-L1 complex formation assay; type: binding; conditions: for Percent inhibition: duplicates
T3 construct: purchased Sino Biologicals (PD-L1); R&D system (PD-1 Fc) 10084-H08H; 1086-PD; host or cells: mammalian cells
Description: The assay was performed using LANCE Ultra TR-FRET binding assay. To determine the half maximal inhibitory concentration (IC50) of tested compounds, they were solubilized in water and measurements were performed on individual dilution series. His-tagged human recombinant PD-L1 protein (Sino Biologicals, Cat#10084-H08H) at 20 nM final concentration was incubated at 25 °C temperature with indicated concentration of test compound for 15 min in a white Lumitec high-binding, 384-well plate (Grenier, Cat #781074). […] LANCE Eu-anti-human IgG from Perkin Elmer, (Cat# AD0212) at 0.5 nM final concentration and Surelight Allophycocyanin-6-His from Perkin Elmer (Cat# AD0059H) at 20 nM final concentration was added to the wells. […] Collected data was background subtracted on the negative control, normalized, and analyzed using non-linear regression analysis to determine the IC50 value by GraphPad Prism Version 8.

B16F10 melanoma = B16F10 melanoma lung metastasis model; type: in vivo, mouse; conditions: 10 mg/kg/day orally for 14 days
Description: Studies in syngeneic models including B16 melanoma metastasis model and CT26 colon carcinoma subcutaneous model were performed as described. For the Docetaxel combination experiment in CT26 model, indicated dosage of docetaxel (Source: Docetere® injection by Dr Reddy’s Laboratories) was dosed intraperitoneally to animals. For the CA-170 combination groups, CA-170 (10 mg/kg/day, oral) was dosed ~10 min after docetaxel. Animal grouping, treatment efficacy assessment and %TGI calculations were performed as mentioned above. For the CT26 experiment with cyclophosphamide, 100 mg/kg of cyclophosphamide was dosed once on day 5 intraperitoneally after cell implantation (first day of dosing for all other groups). Anti-PD1 antibody (Clone J43 from BioXcel) was dosed intraperitoneally at 100 µg/animal once every week.

Adenosine A1, A2A, A3 = experiment: CEREP 80 panel binding: Adenosine; conditions: 10 µM
Description: (§1) CEREP 80 panel assay was carried out by Eurofins Cerep Panlabs facility at France. A series of binding assays was carried out to understand the off-target toxicity of CA-170. CA-170 was tested at 10 μM test concentration in duplicates. Compound binding was calculated as a % inhibition of the binding of a radioactively labeled ligand specific for each target. In each experiment the respective reference compound was tested concurrently with CA-170, and the data were compared with historical values determined at Eurofins. The experiment was accepted in accordance with Eurofins validation standard operating procedure. The results are expressed as a percent of control specific binding; (measured specific binding / control specific binding) × 100 and as a percent inhibition of control specific binding; 100−(measured specific binding / control specific binding) × 100 obtained in the presence of CA-170. The IC50 values (concentration causing a half-maximal inhibition of control specific binding) and Hill coefficients (nH) were determined by non-linear regression analysis of the competition curves generated with mean replicate values using Hill equation curve fitting.

[1] = system: Dopamine D1, D2S, D3, D44, D5; experiment: CEREP 80 panel binding: Dopamine; conditions: 10 µM
Description: as §1

TNFα = experiment: CEREP 80 panel binding: Cytokines; conditions: 10 µM
Description: as §1

[2] = system: 5HT1A, 5HT1B, 5HT2A, 5HT2B, 5HT2C, 5HT3, 5HT5A, 5HT6, 5HT7; experiment: CEREP 80 panel binding: Serotonin; conditions: 10 µM
Description: as §1

Bombesin BB = experiment: CEREP 80 panel binding: Bombesin; conditions: 10 µM
Description: as §1

Bradykinin B2 = molecular target: T4, Bradykinin B2 (Homo sapiens, UniProt P30411); experiment: CEREP 80 panel binding: Bradykinin; conditions: read-out: % Inhibition of Control Specific Binding
T4 construct: Eurofins Cerep Panlabs (contract assay)
Description: as §1

CGRP = molecular target: T5, CGRP (Homo sapiens, UniProt O60894+Q16602); experiment: CEREP 80 panel binding: CGRP; conditions: read-out: % Inhibition of Control Specific Binding
T5 construct: Eurofins Cerep Panlabs (contract assay)
Description: as §1

Chemokines CCR1, CXCR2 = experiment: CEREP 80 panel binding: Chemokines; conditions: 10 µM
Description: as §1

[3] = system: Ion Channels Ca2+, Kv, Skca, Na2+; experiment: CEREP 80 panel binding: Ion Channels; conditions: 10 µM
Description: as §1

[4] = system: Amine transporters DA, NE, 5HT; experiment: CEREP 80 panel binding: Amine transporters; conditions: 10 µM
Description: as §1

[5] = system: broad panel of receptors and enzymes; experiment: CEREP 80-panel profiling, whole panel; type: binding; conditions: CEREP profiling assay
Description: as §1

NFAT reporter = system: NFAT reporter; design: method as in PMID 31374878; conditions: cited from earlier work
[6] = Phase 1, cited from earlier work

T3 sequence (Q9NZQ7 19-239 limits assumed, one chain of several): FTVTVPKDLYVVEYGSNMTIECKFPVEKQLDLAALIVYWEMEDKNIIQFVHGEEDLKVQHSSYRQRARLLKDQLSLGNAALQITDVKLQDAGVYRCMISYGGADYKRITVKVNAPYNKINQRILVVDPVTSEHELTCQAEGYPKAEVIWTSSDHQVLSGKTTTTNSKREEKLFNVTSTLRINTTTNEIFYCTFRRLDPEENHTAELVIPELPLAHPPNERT
T2 sequence (Q9EP73 with tags, fused parts or gaps limits assumed): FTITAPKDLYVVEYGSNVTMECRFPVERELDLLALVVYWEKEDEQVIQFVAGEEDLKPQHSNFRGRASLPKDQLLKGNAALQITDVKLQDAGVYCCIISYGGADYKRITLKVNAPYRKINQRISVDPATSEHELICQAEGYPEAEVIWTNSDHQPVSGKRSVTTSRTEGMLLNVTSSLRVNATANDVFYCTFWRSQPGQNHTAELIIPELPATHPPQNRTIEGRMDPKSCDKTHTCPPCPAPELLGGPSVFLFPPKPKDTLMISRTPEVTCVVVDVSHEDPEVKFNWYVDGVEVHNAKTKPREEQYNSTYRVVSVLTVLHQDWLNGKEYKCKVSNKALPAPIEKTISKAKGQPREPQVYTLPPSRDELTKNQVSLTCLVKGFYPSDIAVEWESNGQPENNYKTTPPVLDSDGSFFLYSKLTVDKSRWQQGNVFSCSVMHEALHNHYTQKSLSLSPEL
T5 sequence (Q16602 23-461): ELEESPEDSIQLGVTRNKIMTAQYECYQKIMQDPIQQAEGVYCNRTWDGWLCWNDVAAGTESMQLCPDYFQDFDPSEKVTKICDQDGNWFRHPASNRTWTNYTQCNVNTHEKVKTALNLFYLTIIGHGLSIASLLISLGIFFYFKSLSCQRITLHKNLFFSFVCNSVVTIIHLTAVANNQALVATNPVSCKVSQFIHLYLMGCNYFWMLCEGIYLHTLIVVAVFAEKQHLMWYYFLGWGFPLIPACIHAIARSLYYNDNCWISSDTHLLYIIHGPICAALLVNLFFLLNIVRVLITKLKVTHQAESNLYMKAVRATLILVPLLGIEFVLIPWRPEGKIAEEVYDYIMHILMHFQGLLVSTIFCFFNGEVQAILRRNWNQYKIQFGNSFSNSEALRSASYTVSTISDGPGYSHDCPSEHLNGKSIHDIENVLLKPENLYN
T5 sequence (O60894 27-148): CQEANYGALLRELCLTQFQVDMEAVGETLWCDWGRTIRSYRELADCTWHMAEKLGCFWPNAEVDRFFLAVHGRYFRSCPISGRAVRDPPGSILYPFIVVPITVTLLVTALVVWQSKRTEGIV
T1 sequence (Q9WUL5 with tags, fused parts or gaps limits assumed): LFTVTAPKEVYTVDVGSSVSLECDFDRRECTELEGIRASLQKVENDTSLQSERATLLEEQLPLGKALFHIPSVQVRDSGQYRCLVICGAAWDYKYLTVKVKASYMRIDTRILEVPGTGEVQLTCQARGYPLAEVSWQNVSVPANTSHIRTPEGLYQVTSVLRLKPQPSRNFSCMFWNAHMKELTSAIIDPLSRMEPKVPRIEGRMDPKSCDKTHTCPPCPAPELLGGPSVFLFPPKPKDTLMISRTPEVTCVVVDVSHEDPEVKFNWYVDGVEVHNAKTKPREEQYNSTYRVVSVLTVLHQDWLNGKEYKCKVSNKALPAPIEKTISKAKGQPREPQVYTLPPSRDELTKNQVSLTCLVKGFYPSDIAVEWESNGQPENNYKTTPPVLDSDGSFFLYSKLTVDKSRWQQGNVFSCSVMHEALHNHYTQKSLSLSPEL
T4 sequence (P30411 whole entry): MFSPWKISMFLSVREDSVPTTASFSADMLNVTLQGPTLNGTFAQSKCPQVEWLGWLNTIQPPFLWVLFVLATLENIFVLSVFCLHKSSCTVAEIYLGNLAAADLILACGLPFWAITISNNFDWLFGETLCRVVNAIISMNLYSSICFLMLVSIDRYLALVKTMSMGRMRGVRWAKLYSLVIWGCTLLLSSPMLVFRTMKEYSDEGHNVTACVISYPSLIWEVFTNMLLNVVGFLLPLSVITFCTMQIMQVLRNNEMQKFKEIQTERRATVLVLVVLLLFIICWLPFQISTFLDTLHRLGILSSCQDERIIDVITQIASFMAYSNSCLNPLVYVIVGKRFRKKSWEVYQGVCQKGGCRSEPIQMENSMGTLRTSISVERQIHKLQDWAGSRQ
Description for Plasma stability, human: (§2) Test compounds were tested for plasma stability (test concentration of 10 μM) as per the protocols reported in publication[20].
Description for Plasma stability, rat: as §2

Compound: C[C@@H](O)[C@H](NC(=O)N[C@@H](CC(N)=O)c1nc([C@@H](N)CO)no1)C(=O)O [CA-170]
- EC50 (PD-L2): 40.2 nM
- EC50 (PD-L1): 34.6 nM
- Percent inhibition (PD-1:PD-L1 complex; 1e-7 M): 6.182% and -0.9776%
- Percent inhibition (PD-1:PD-L1 complex; 1e-6 M): -12.4686% and -2.961%
- Percent inhibition (PD-1:PD-L1 complex; 1e-5 M): -7.3407% and -7.039%
- Percent inhibition (PD-1:PD-L1 complex; 0.0001 M): -7.475% and -8.751%
- prevention of PD-1:PD-L1 complex formation (in words) (PD-1:PD-L1 complex; tested up to 100 μM): did not lead to prevention of complex formation
- reduction in metastatic nodules (B16F10 melanoma; B16F10, vs vehicle control): 73%
- Individual Metastatic nodules on lungs (B16F10 melanoma; B16F10 iv in C57B6 mice, 10 mg/kg/day): 3 and 23 and 2 and 13 and 0 and 8 and 1 and 10 and 14
- % Inhibition of Control Specific Binding (Adenosine A1, A2A, A3): ≤ 26%
- % Inhibition of Control Specific Binding [1]: ≤ 14%
- % Inhibition of Control Specific Binding (TNFα): < 0%
- % Inhibition of Control Specific Binding [2]: ≤ 20%
- % Inhibition of Control Specific Binding (Bombesin BB): < 0%
- inhibition at 10 µM (Bradykinin B2): < 0%
- inhibition at 10 µM (CGRP): 1%
- % Inhibition of Control Specific Binding (Chemokines CCR1, CXCR2): 1%
- % Inhibition of Control Specific Binding [3]: 1%
- % Inhibition of Control Specific Binding [4]: ≤ 1%
- interaction with panel of receptors and enzymes (in words) [5]: minimal or no interaction
- activity in NFAT-reporter-based assay (in words) (NFAT reporter): no activity
- peripheral T-cell activation (in words) ([6]; circulating CD8+ and CD4+ T cells expressing CD69, Granzyme B, OX-40): Evidence of peripheral T-cell activation
- T1/2 ([6]; oral 50 to 1200 mg): 4 to 9.5 h
- safety profile (in words) ([6]; oral 50 to 1200 mg): acceptable safety profile
- remaining at 4 h, 10 μM (Plasma stability, rat): > 95%
- remaining at 4 h, 10 μM (Plasma stability, human): > 95%
